# Assay results: patent US11597724B2, “Herbicidally active 3-phenylisoxazoline-5-carboxamides of tetrahydro and dihydrofuran carboxylic acids and esters” (Bayer Aktiengesellschaft, priority 2017, dated 2023)
# Assays:
# Assay type in all cases: in vivo
# Polygonum convolvulus [1] = test: Pre-emergence herbicidal activity against POLCO; details: dosage 80 g/ha; for pest or weed control at 80 g/ha: Fallopia convolvulus, 504 h
# Text: (§1) 1. Pre-Emergence Herbicidal Action and Crop Plant Compatibility Seeds of monocotyledonous and dicotyledonous weed plants and crop plants are placed in plastic or wood fiber pots and covered with soil. The compounds of the invention, formulated in the form of wettable powders (WP) or as emulsion concentrates (EC), are then applied onto the surface of the covering soil as aqueous suspension or emulsion with addition of 0.5% additive at a water application rate of 600 l/ha (converted). After the treatment, the pots are placed in a greenhouse and kept under good growth conditions for the trial plants. After about 3 weeks, the effect of the preparations is scored visually in comparison with untreated controls as percentages. For example, 100% activity=the plants have died, 0% activity=like control plants. POLCO: Polygonum convolvulus SETVI: Setaria viridis
# Veronica persica [2] = test: Pre-emergence herbicidal activity against VERPE; details: dosage 80 g/ha; for pest or weed control at 80 g/ha: Veronica persica, 504 h
# Outline: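 Weed seeds sown in pots and covered with soil, then WP or EC formulations sprayed onto the soil surface as aqueous suspension/emulsion with 0.5% additive at 600 l/ha water. Kept in greenhouse; visual percent effect versus untreated controls scored after about 3 weeks (100% = plants dead).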
# Alopecurus myosuroides = test: Post-emergence herbicidal activity against ALOMY; details: dosage 320 g/ha, rated about 3 weeks after treatment; for pest or weed control at 320 g/ha: Alopecurus myosuroides, 504 h
# Outline: (§2)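 Greenhouse-grown plants treated at one-leaf stage, 2 to 3 weeks after sowing, with WP or EC formulations sprayed as aqueous suspension/emulsion plus 0.5% additive at 600 l/ha. Activity rated visually about 3 weeks later versus untreated controls (100% = plants dead, 0% = like control).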
# Veronica persica [3] = test: Post-emergence herbicidal activity against VERPE; details: dosage 320 g/ha; for pest or weed control at 320 g/ha: Veronica persica, 504 h
# Outline: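 Greenhouse plants treated at one-leaf stage, 2–3 weeks after sowing, by spraying WP or EC formulations with 0.5% additive at 600 l/ha water. Visual rating about 3 weeks later versus untreated controls (100% = plants dead, 0% = like controls).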
# Polygonum convolvulus [4] = test: Post-emergence herbicidal activity against POLCO; details: dosage 320 g/ha, rated about 3 weeks after treatment; for pest or weed control at 320 g/ha: Fallopia convolvulus, 504 h
# Outline: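 Greenhouse weeds in sandy loam were sprayed at the one-leaf stage, 2–3 weeks after sowing, with WP or EC formulations plus 0.5% additive at 600 l/ha water. About 3 weeks later, damage was rated visually against untreated controls, where 100% means plants dead and 0% means like control.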
# Abutilon theophrasti = test: Post-emergence herbicidal activity against ABUTH; details: dosage 320 g/ha, rated about 3 weeks after treatment; for pest or weed control at 320 g/ha: Abutilon theophrasti, 504 h
# Outline: as §2
# Avena fatua [5] = test: Post-emergence herbicidal activity against AVEFA; details: dosage 320 g/ha, rated about 3 weeks after treatment; for pest or weed control at 320 g/ha: Avena fatua, 504 h
# Outline: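 Greenhouse pots of sandy loam; plants sprayed at one-leaf stage, 2 to 3 weeks after sowing, with WP or EC formulations in water plus 0.5% additive at 600 l/ha. Activity rated visually after about 3 weeks against untreated controls (100% = plants dead, 0% = like control).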
# Avena fatua [6] = test: Pre-emergence herbicidal activity against AVEFA; details: dosage 80 g/ha; for pest or weed control at 80 g/ha: Avena fatua, 504 h, read-out: Pre-emergence herbicidal activity against AVEVA in % (AVEFA)
# Text: as §1, with “AMARE: Amaranthus retroflexus AVEFA: Avena fatua” for “POLCO: Polygonum convolvulus SETVI: Setaria viridis”
# Setaria viridis = test: Pre-emergence herbicidal activity against SETVI; details: dosage 80 g/ha; for pest or weed control at 80 g/ha: Setaria viridis, 504 h
# Text: as §1
Compound,pest or weed control at 80 g/ha (Polygonum convolvulus [1]) [%],pest or weed control at 80 g/ha (Veronica persica [2]) [%],pest or weed control at 320 g/ha (Alopecurus myosuroides) [%],pest or weed control at 320 g/ha (Veronica persica [3]) [%],pest or weed control at 320 g/ha (Polygonum convolvulus [4]) [%],pest or weed control at 320 g/ha (Abutilon theophrasti) [%],pest or weed control at 320 g/ha (Avena fatua [5]) [%],pest or weed control at 80 g/ha (Avena fatua [6]) [%],pest or weed control at 80 g/ha (Setaria viridis) [%],Pre-emergence herbicidal activity against POLCO in % (Polygonum convolvulus [1]) [%],Pre-emergence herbicidal activity against VERPE in % (Veronica persica [2]) [%],Post-emergence herbicidal activity against ALOMY in % (Alopecurus myosuroides) [%],Post-emergence herbicidal activity against VERPE in % (Veronica persica [3]) [%],Post-emergence herbicidal activity against POLCO in % (Polygonum convolvulus [4]) [%],Post-emergence herbicidal activity against ABUTH in % (Abutilon theophrasti) [%],Post-emergence herbicidal activity against AVEFA in % (Avena fatua [5]) [%],Pre-emergence herbicidal activity against AVEVA in % (AVEFA) (Avena fatua [6]) [%],Pre-emergence herbicidal activity against SETVI in % (Setaria viridis) [%]
"C=C[C@]1(C(=O)N[C@H]2CO[C@@H](C(=O)OC)C2)CC(c2cc(F)cc(F)c2)=NO1 (mixture of isomers) [I-10, methyl cis-4-[[(5S)-3-(3,5-difluorophenyl)-5-vinyl-4H-isoxazole-5-carbonyl]amino]tetrahydrofuran-2-carboxylate]",100,100,100,80,80,90,100,100,100,–,–,–,–,–,–,–,–,–
"C=C[C@]1(C(=O)N[C@H]2CO[C@@H](C(=O)OC(C)C)C2)CC(c2cc(F)cc(F)c2)=NO1 (mixture of isomers) [I-36, isopropyl cis-4-[[(5S)-3-(3,5-difluorophenyl)-5-vinyl-4H-isoxazole-5-carbonyl]amino]tetrahydrofuran-2-carboxylate]",100,100,90,90,80,90,90,100,100,–,–,–,–,–,–,–,–,–
"C=C[C@]1(C(=O)N[C@H]2CO[C@@H](C(=O)OC(C)(C)C)C2)CC(c2cc(F)cc(F)c2)=NO1 (mixture of isomers) [I-38, tert-butyl cis-4-[[(5S)-3-(3,5-difluorophenyl)-5-vinyl-4H-isoxazole-5-carbonyl]amino]tetrahydrofuran-2-carboxylate]",100,100,90,80,–,80,90,90,100,–,–,–,–,–,–,–,–,–
CC(C)(C)OC(=O)C1CC(NC(=O)C2(C)CC(c3cc(F)cc(F)c3)=NO2)CO1 (mixture of isomers) [I-42],–,–,–,–,–,–,–,–,–,100,90,100,80,80,80,100,90,100
CCOC(=O)C1CC(NC(=O)C2(C)CC(c3cc(F)cc(F)c3)=NO2)CO1 (mixture of isomers) [I-43],–,–,–,–,–,–,–,–,–,100,90,100,90,80,80,100,100,100
CC1(C(=O)NC2COC(C(=O)OCc3ccccc3)C2)CC(c2cc(F)cc(F)c2)=NO1 (mixture of isomers) [I-45],–,–,–,–,–,–,–,–,–,100,80,100,80,80,80,100,100,100
COC(=O)C1CC(NC(=O)C2(C)CC(c3cc(F)cc(F)c3)=NO2)CO1 (mixture of isomers) [I-48],–,–,–,–,–,–,–,–,–,100,100,90,80,80,80,80,100,100
"C=C[C@]1(C(=O)N[C@H]2CO[C@@H](C(=O)OC)C2)CC(c2cc(F)cc(F)c2)=NO1 (single isomer, unassigned) [I-11]",–,–,90,–,90,90,100,–,–,100,100,–,–,–,–,–,100,100
"C=C[C@]1(C(=O)N[C@H]2CO[C@@H](C(=O)OC)C2)CC(c2cc(F)cc(F)c2)=NO1 (single isomer, unassigned) [I-12]",100,100,–,–,–,–,–,100,100,–,–,90,–,90,90,100,–,–
CC(C)OC(=O)C1CC(NC(=O)C2(C)CC(c3cc(F)cc(F)c3)=NO2)CO1 (stereo not drawn) [I-44],–,–,–,–,–,–,–,–,–,100,80,100,80,80,80,100,90,100
"COC(=O)C1=C[C@@H](NC(=O)C2(C)CC(c3cccc(F)c3)=NO2)CO1 (stereo partly drawn) [I-46, methyl (3R)-3-[[3-(3-fluorophenyl)-5-methyl-4H-isoxazole-5-carbonyl]amino]-2,3-dihydrofuran-5-carboxylate]",90,80,100,80,80,80,100,80,100,–,–,–,–,–,–,–,–,–
